≈ marks a conversion by molar mass, not a printed value. Like-named read-outs stand apart in the source and are kept apart here. Non-standard residues stand in square brackets, D forms with d. Residues, ends and D or L forms follow the SMILES beside them. *: point of attachment. Leu(ol) = CC(C)C[C@H](N)CO; Octanoyl = CCCCCCCC(=O)*; Api = NC1(C(=O)O)CCNCC1; Aib = CC(C)(N)C(=O)O
Experiments:
[1] = test system: Acinetobacter baumannii ATCC 17978; settings: for MIC Aba: MHB, 5 × 10^5 CFU/mL, 18 h, 35 °C, triplicate
From the text: (§1) The antibacterial activity of the peptides was initially assessed on a panel of representative Gram-positive and Gram-negative organisms of high clinical relevance and commonly responsible for bacterial infections in both animals and humans. Bacillus subtilis ATCC 6633 (Bsu) was also included as a rod-shaped model Gram-positive organism. This first panel comprised: Enterococcus faecalis ATCC 29212 (Efa); Streptococcus pyogenes ATCC 12344 (Spy); and Staphylococcus aureus ATCC 25923 (Sau); Gram-negative: Escherichia coli CCUGT (Eco), Klebsiella pneumoniae ATCC 13833 (Kpn), Acinetobacter baumannii ATCC 17978 (Aba), and Pseudomonas aeruginosa ATCC 27853 (Pae) (Table 2). Both the minimum inhibitory concentration (MIC, Table 2) and the minimum bactericidal concentration (MBC, Table S1, Supporting Material) were determined.
(§2) The minimum inhibitory concentration (MIC) and the minimum bactericidal concentration (MBC) of the compounds were determined in triplicate using Mueller–Hinton broth (MHB). […] Therefore, we decided to dissolve all peptides in DMSO to a final concentration of 25 mg/mL, for consistency. The bacteria inoculum was 5 × 10^5 CFU/mL, as recommended by CLSI (Document M07-A10, 2015). […] Reference-type strains, including representatives of both Gram-positive bacteria (Bacillus subtilis ATCC 6633, Enterococcus faecalis ATCC 29212, Staphylococcus aureus ATCC 25923, the methicillin-resistant Staphylococcus aureus ATCC 43300 (MRSA), Streptococcus pyogenes ATCC 12344) and Gram-negative bacteria (Escherichia coli CCUGT, Klebsiella pneumoniae ATCC 13833, Pseudomonas aeruginosa ATCC 27853, and Acinetobacter baumannii ATCC 17978), were acquired from ATCC or CCUG culture collections. Other antibiotic-resistant clinical isolates were present in our collection at the University Teaching Hospital (Azienda Ospedaliero-Universitaria Senese ‘Santa Maria alle Scotte’) in Siena, Tuscany, Italy. Specifically, MDR carbapenem-hydrolyzing class D β-lactamase-producing Acinetobacter baumannii and metallo-β-lactamase-producing Pseudomonas aeruginosa were used in this study (Table 4).

[2] = test system: Pseudomonas aeruginosa ATCC 27853; settings: for MIC Pae: MHB, 5 × 10^5 CFU/mL, 18 h, 35 °C, triplicate
From the text: as §1, §2

[3] = test system: Enterococcus faecalis ATCC 29212
From the text: as §1, §2

[4] = test system: Streptococcus pyogenes ATCC 12344
From the text: as §1, §2

[5] = test system: Escherichia coli CCUGT; settings: 18 h; for MIC Eco: MHB, 5 × 10^5 CFU/mL, 35 °C, triplicate
From the text: as §1, §2

[6] = test system: Bacillus subtilis ATCC 6633
From the text: as §1, §2

[7] = test system: Klebsiella pneumoniae ATCC 13833; settings: for MIC Kpn: MHB, 5 × 10^5 CFU/mL, 18 h, 35 °C, triplicate
From the text: as §1, §2

[8] = test system: Staphylococcus aureus ATCC 25923
From the text: as §1, §2

[9] = test system: blood agar plate (Columbia CNA Agar); assay: Hemolysis on blood agar plate; settings: 35 ± 2 °C, 24 h; for Hemolysis (class): 50 μg peptide (2 μL of 25 mg/mL in DMSO) spotted on blood agar, visual, triplicate; for Hemolytic activity (in words) / Hemolysis (d, diameter of hemolysis zone): 50 μg spotted on blood agar; for Hemolysis (d, diameter of hemolysis zone): average of triplicate
Procedure: Hemolysis zones were visually determined and measured. […] For two additional peptides (6 and 15), only a small hemolysis zone (diameter 4–5 mm) was visible, as compared to that of the positive control (Triton X-100, 13 mm).
Briefly, 2 μL of each peptide solution in DMSO (25 mg/mL), corresponding to 50 μg, was spotted on the surface of a blood agar plate (Columbia CNA Agar, Becton Dickinson Italia S.p.A., Florence, Italy). The plate was then incubated at 35 ± 2 °C for 24 h and visually inspected for the presence of hemolysis zones (see Figure S13, Supplementary Material). The experiment was performed in triplicate. Table 2 reports the average value of the diameter of hemolysis zones measured in each individual experiment. Triton X-100 was used as a positive control (diameter of the hemolysis zone: 13 mm), while DMSO was used as a negative control.
Figure S13. Implementation of the hemolysis test as described in Bechlars et al.. After spotting
2 µL (50 µg) of each compound at a random location on the blood agar plate and incubation at 35 ±
2 °C for 24 h, the plates were manually inspected for the presence of hemolysis zones. Triton X-100
and DMSO were used as the positive and negative controls, respectively. Results were interpreted
(1 picture or pasted object on this page, not shown here)

[10] = test system: S. aureus ATCC 43300 (MRSA); settings: MHB, 5 × 10^5 CFU/mL, 18 h, 35 °C, triplicate
Procedure: as §2

[11] = MHB, 5 × 10^5 CFU/mL, 18 h, 35 °C, triplicate

Row | Molecule | MIC Aba [1] [µg/mL] | MIC Pae [2] [µg/mL] | MBC Efa [3, 11] [µg/mL] | MIC Efa [3, 11] [µg/mL] | MBC Spy [4, 11] [µg/mL] | MIC Spy [4, 11] [µg/mL] | MIC Eco [5] [µg/mL] | MBC Bsu [6, 11] [µg/mL] | MIC Bsu [6, 11] [µg/mL] | MIC Kpn [7] [µg/mL] | MIC Sau [8, 11] [µg/mL] | Hemolysis (class) [9] | Hemolysis (d, diameter of hemolysis zone) [9] [mm] | further results
1 | CCCCCCCC(=O)NC(C)(C)C(=O)NCC(=O)N[C@@H](CC(C)C)C(=O)NC(C)(C)C(=O)NCC(=O)NCC(=O)N[C@@H](CC(C)C)C(=O)NC(C)(C)C(=O)NCC(=O)N[C@H](C(=O)N[C@H](CO)CC(C)C)[C@@H](C)CC [Peptide 0, Trichogin GA IV, reference compound] (Octanoyl-[Aib]GL[Aib]GGL[Aib]GI[Leu(ol)]) | > 128 | > 128 | 32 (≈ 30 µM) | 16 (≈ 15 µM) | 16 (≈ 15 µM) | 16 (≈ 15 µM) | > 128 | 32 (≈ 30 µM) | 16 (≈ 15 µM) | > 128 | > 128 | - |  | 
2 | CCCCCCCC(=O)NC(C)(C)C(=O)NCC(=O)N[C@@H](CC(C)C)C(=O)N[C@@H](CC(C)C)C(=O)NCC(=O)NCC(=O)N[C@@H](CC(C)C)C(=O)NC(C)(C)C(=O)NCC(=O)N[C@H](C(=O)N[C@@H](CC(C)C)C(N)=O)[C@@H](C)CC [Peptide 3, 1-Oct-Aib-Gly-Leu-Leu-Gly-Gly-Leu-Aib-Gly-Ile-Leu-NH2] (Octanoyl-[Aib]GLLGGL[Aib]GIL-NH2) | > 128 | > 128 |  | > 128 |  | > 128 | > 128 |  | > 128 | > 128 | > 128 | - |  | Hemolytic activity (in words) [9]: no hemolysis detected
3 | CCCCCCCC(=O)NC(C)(C)C(=O)NCC(=O)N[C@@H](CC(C)C)C(=O)NC(C)(C)C(=O)N[C@@H](CCCCN)C(=O)NC(C)(C)C(=O)N[C@@H](CC(C)C)C(=O)NC(C)(C)C(=O)NCC(=O)N[C@H](C(=O)N[C@H](CO)CC(C)C)[C@@H](C)CC [Peptide 6, 1-Oct-Aib-Gly-Leu-Aib-Lys-Aib-Leu-Aib-Gly-Ile-Lol] (Octanoyl-[Aib]GL[Aib]K[Aib]L[Aib]GI[Leu(ol)]) | > 128 | > 128 | 8 (≈ 6.86 µM) | 8 (≈ 6.86 µM) | 8 (≈ 6.86 µM) | 8 (≈ 6.86 µM) | > 128 | 16 (≈ 13.7 µM) | 8 (≈ 6.86 µM) | > 128 | 8 (≈ 6.86 µM) | + | 4 | MBC Sau [8, 11]: 16 µg/mL (≈ 13.7 µM); MBC S. aureus ATCC 43300 (MRSA) [10]: 8 µg/mL (≈ 6.86 µM); MIC S. aureus ATCC 43300 (MRSA) [10]: 4 µg/mL (≈ 3.43 µM)
4 | CCCCCCCC(=O)NC(C)(C)C(=O)NCC(=O)N[C@@H](CC(C)C)C(=O)NC(C)(C)C(=O)N[C@@H](CCCCN)C(=O)NC(C)(C)C(=O)N[C@@H](CC(C)C)C(=O)NC(C)(C)C(=O)NCC(=O)N[C@H](C(=O)N[C@@H](CC(C)C)C(N)=O)[C@@H](C)CC [Peptide 6b, 1-Oct-Aib-Gly-Leu-Aib-Lys-Aib-Leu-Aib-Gly-Ile-Leu-NH2] (Octanoyl-[Aib]GL[Aib]K[Aib]L[Aib]GIL-NH2) | > 128 | > 128 | 128 (≈ 109 µM) | 128 (≈ 109 µM) | 32 (≈ 27.2 µM) | 8 (≈ 6.79 µM) | > 128 | 128 (≈ 109 µM) | 128 (≈ 109 µM) | > 128 | 128 (≈ 109 µM) | - |  | MBC Sau [8, 11]: 128 µg/mL (≈ 109 µM)
5 | CCCCCCCC(=O)NC(C)(C)C(=O)NCC(=O)N[C@@H](CC(C)C)C(=O)NC(C)(C)C(=O)NCC(=O)NCC(=O)N[C@@H](CC(C)C)C(=O)NC1(C(=O)NCC(=O)N[C@H](C(=O)N[C@@H](CC(C)C)C(N)=O)[C@@H](C)CC)CCNCC1 [Peptide 8, 1-Oct-Aib-Gly-Leu-Aib-Gly-Gly-Leu-Api-Gly-Ile-Leu-NH2] (Octanoyl-[Aib]GL[Aib]GGL[Api]GIL-NH2) | > 128 | > 128 |  | 16 (≈ 14.3 µM) |  | 16 (≈ 14.3 µM) | > 128 |  | 32 (≈ 28.6 µM) | > 128 | > 128 | + | 7 | Hemolytic activity (in words) [9]: hemolytic activity
6 | CCCCCCCC(=O)NC(C)(C)C(=O)N[C@@H](CCCCN)C(=O)N[C@@H](CC(C)C)C(=O)N[C@@H](CC(C)C)C(N)=O [Peptide 15, 1-Oct-Aib-Lys-Leu-Leu-NH2] (Octanoyl-[Aib]KLL-NH2) | 64 (≈ 110 µM) | 64 (≈ 110 µM) |  | 32 (≈ 54.9 µM) |  | 16 (≈ 27.5 µM) | 64 (≈ 110 µM) |  | 16 (≈ 27.5 µM) | 64 (≈ 110 µM) | 64 (≈ 110 µM) |  | 5 | MBC Aba ([1]; ATCC 17978, 18 h): 128 µg/mL (≈ 220 µM); MBC Pae ([2]; ATCC 27853, 18 h): > 128 µg/mL; MBC Efa ([3]; ATCC 29212, 18 h): 32 µg/mL (≈ 54.9 µM); MBC Spy ([4]; ATCC 12344, 18 h): 16 µg/mL (≈ 27.5 µM); MBC Eco ([5]; CCUGT): > 128 µg/mL; MBC Bsu ([6]; ATCC 6633, 18 h): 32 µg/mL (≈ 54.9 µM); MBC Kpn ([7]; ATCC 13833, 18 h): > 128 µg/mL; MBC Sau ([8]; ATCC 25923, 18 h): > 128 µg/mL
7 | Triton X-100 [reference compound] |  |  |  |  |  |  |  |  |  |  |  |  | 13 | 

— publication PMC10178204, “Peptaibol Analogs Show Potent Antibacterial Activity against Multidrug Resistant Opportunistic Pathogens” (International Journal of Molecular Sciences, 2023)
